# From patent US10568320B2, “Biologically-based control methods for insect pests” (The United States of America, as represented by the …, priority 2017, dated 2020)
# Legend:
# fire ant workers [1] = test: Example 14 feeding experiments: fire ant worker mortality
# female sexuals (alates) = test: Worker attraction to poison sac extracts of dealates (queen pheromone bioassay); assay type: in vivo, Solenopsis invicta; details: extracts from dealates of fed sub-colonies
# [2] = tested on: monogyne queenright colonies; test: Feeding of monogyne queenright colonies: worker and queen mortality; assay type: in vivo, Solenopsis invicta; details: 1% in 10% sucrose, 27 d
# Excerpt: FIGS. 24A and 24B show results for the sucrose (10%) control and two treatments, tyramine (1%) and N-methyl-tyramine (1%), both dissolved in 10% sucrose. The control and test colonies were monogyne queenright colonies, containing a single queen, brood and workers started in the laboratory from newly mated queens collected in the field. The mean number of workers per colony was 8,400±400. […] Previous experiments used queenless sub-colonies, rather than the queenright colonies in these experiments. The mortality effect on colony queens was unexpected, since worker fire ants are completely sterile and cannot reproduce even if the queen dies. Therefore, when the reproductive queen dies no more brood is produced and the colony is no longer functional—it is considered dead. […] Therefore, 80% of the treated colonies were considered dead.
# [3] = Solubility in aqueous solution; assay type: physicochemical; details: solution
# fire ant workers [4] = test: Five biogenic amines fed to fire ant workers as droplets; assay type: in vivo, Solenopsis invicta; details: 1% (w/v) as HCl salts in 10% sucrose, 48 h, 60 workers
# Experimental: Tyramine is one of five biogenic amines that may be found in insects (e.g., dopamine, histamine, octopamine, serotonin, and tyramine). The experiment in this example tests whether fire ant worker mortality effects observed with tyramine may be a general result of the ants ingesting greater than normal amounts of a biogenic amine. To test this hypothesis groups of 20 fire ant worker ants were starved for 24 hours and fed a 1% (w/v) biogenic amine in 10% sucrose solution. Treatments and sucrose were presented to the worker ants as a 25 microliter droplet on a 2 cm^2 piece of silicon treated filter paper. Each treatment and control were performed in triplicate for a total of 60 worker ants per treatment and control. Mortality was monitored for the first 7-8 h after introduction of the sucrose solutions, then at 24 h. The feeding/monitoring sequence was repeated for another 24 h period for a total of 48 h. The results are shown in FIG. 12A-12B in the form of Kaplan-Meier mortality curves.
# [5] = tested on: mature female alates (MFAs); test: Injection into MFA abdomen: ovariole development and egg-laying; assay type: in vivo, Solenopsis invicta; details: 100 nL of a 1.0% saline solution (1 microgram) injected
# Excerpt: Two measures of ovariole development were used. […] Measurement of ovariole area in the same samples gave a quantitative measure of ovariole development. […] Within the context of a colony this effect would be in direct conflict with the colony queen. Eggs laid would not be fertile and therefore develop into males. Queen pheromone is also produced by […], which would act to reduce the fecundity of the colony queen. For example, in polygyne colonies the higher the number of queens the lower is the mean egg-laying rate/queen due to the presence of excess queen pheromone (see Vander Meer, R. K., et al. (1992), A comparison of queen oviposition rates from monogyne and polygyne fire ant, Solenopsis invicta, colonies.
# [6] = tested on: mature female alates (MFAs); test: Injection into MFA abdomen: wing loss (dealation); assay type: in vivo, Solenopsis invicta; details: 100 nL of a 1.0% saline solution injected into the MFA abdomen
# Excerpt: While the MFAs are in their mother colony, the queen releases primer pheromones that inhibit wing loss (sometimes referred to herein as “dealation”), development of ovaries, wing muscle histolysis, and pheromone production. This release prevents reproductive/resource competition between the MFAs and the mother queen. If MFAs are removed from the colony, they become disinhibited and eventually (e.g., within days) lose their wings and start the physiological processes (e.g., wing loss and ovariole development). MFA also become disinhibited when they leave the colony on a mating flight; however, in this case the now NMQs lose their wings within minutes of landing and initiate the above mentioned physiological/biochemical changes (e.g., wing loss and ovariole development). We know from previous experiments that mating is the trigger, not mating flight initiation or the act of flying (Burns, S. N., et al. (2002) Identification and action of juvenile hormone III from sexually mature alate females of the red imported fire ant, Solenopsis invicta. Journal of Insect Physiology 48: 357-365; Burns, S. N., et al. (2005), The effect of age and social environment on dealation in Solenopsis invicta (Hymenoptera: Formicidae) female […]. […] Burns, S. N., et al. […]
# fire ant workers [7] = test: Droplet feeding of worker groups: mortality over 24 h and concentration series; assay type: in vivo; details: about 1% in 10% sucrose
# Experimental: To determine how quickly the tyramine and acetyl tyramide act, 60 workers were allowed to feed on tyramine (FIG. 8A) or acetyl tyramide (FIG. 8B) dissolved at about 1% in 10% sucrose solution. The control and treatments were presented to the worker ants as droplets on phase separation filter paper. Consumption of the droplets was readily observed. Mortality was monitored for each of the first 10 hours and then at 24 hours. […] Tyramine and acetyl tyramide had >50% and >40% mortality, respectively within the 24 h time period of the experiment. […] This distribution is a cornerstone of pest ant baits. To test this hypothesis, a similar experiment was conducted. Workers were allowed to feed on the treatment and control solutions and were then transferred to another container with unfed nestmates. In all cases, it was observed that the treatment fed workers regurgitated the treatment and sucrose solutions to their unfed nestmates through the classic mechanism of trophallaxis (data not shown). Thus, normal worker behavior necessary for bait development was not affected by the treatments under these experimental conditions.
# One criteria for an effective pest ant Active Ingredient (AI) is maintenance of activity over 1-3 orders of magnitude, because as the bait is distributed from one ant to another the material is diluted. The AI must maintain activity until all individuals in the colony (e.g., workers, brood and sexuals including the queen) have received the AI. […] Journal of Economic Entomology 99(5): 1739-1748). The 0.01% had >24 h delay in mortality.
# 4th instar sexual larvae = test: Direct (hand) feeding of 4th instar sexual larvae; assay type: in vivo, Solenopsis invicta; details: fed once, 80 nL max of about 1% w/v in 10% sucrose; N=10
# Excerpt: It was concluded that the 4th instar larvae are refractory to the mortality effects observed when workers are fed tyramine.
molecule,measurement,setting,value
COc1ccccc1CCN [2-methoxy-phenethylamine],fire ant worker mortality versus 10% sucrose control,fire ant workers [1]; 1.0% in 10% sucrose,No difference in mortality
COc1ccc(CCN)cc1Cl [3-chloro-4-methoxyphenethylamine],fire ant worker mortality versus 10% sucrose control,fire ant workers [1]; 0.1% in 10% sucrose,significantly different from the 10% sucrose control
same,fire ant worker mortality versus 10% sucrose control,fire ant workers [1]; 1.0% in 10% sucrose,significantly different from the 10% sucrose control
same,mortality,fire ant workers [1]; 1.0 and 0.1% in 10% sucrose,about 8%
COc1cccc(CCN)c1 [3-methoxy-phenethylamine],fire ant worker mortality versus 10% sucrose control,fire ant workers [1]; 1.0% in 10% sucrose,No difference in mortality
"NCCc1ccc(Br)cc1 [4-bromophenethylamine, 4-bromo-phenethylamine]",fire ant worker mortality versus 10% sucrose control,fire ant workers [1]; 1.0% in 10% sucrose,"Significant, but low, worker mortality"
"NCCc1ccc(Cl)cc1 [4-chlorophenethylamine, 4-chloro-phenethylamine]",fire ant worker mortality versus 10% sucrose control,fire ant workers [1]; 1.0% in 10% sucrose,"Significant, but low, worker mortality"
NCCc1ccc(F)cc1 [4-flurophenethylamine],fire ant worker mortality versus 10% sucrose control,fire ant workers [1]; 1.0% in 10% sucrose,"Significant, but low, worker mortality"
COc1ccc(CCN)cc1 [4-methoxy-phenethylamine],fire ant worker mortality versus 10% sucrose control,fire ant workers [1]; 1.0% in 10% sucrose,No difference in mortality
"CN(C)CCc1ccc(O)cc1 [N,N-dimethyl-tyramine]",fire ant worker mortality versus 10% sucrose control,fire ant workers [1]; 1.0% in 10% sucrose,no difference in mortality
CNCCc1ccc(O)cc1.Cl [N-methyl-tyramine (HCl)],fire ant worker mortality versus 10% sucrose control,fire ant workers [1]; 0.01% in 10% sucrose,significantly different from the sucrose control
same,speed of worker mortality versus tyramine at the same concentration,"fire ant workers [1]; 0.01%, p<0.01",significantly faster than the 0.01% tyramine
same,fire ant worker mortality versus 10% sucrose control,fire ant workers [1]; 0.1% in 10% sucrose,significantly different from the sucrose control
same,speed of worker mortality versus tyramine at the same concentration,"fire ant workers [1]; 0.1%, p=0.22",not significantly faster than the 0.1% tyramine
same,fire ant worker mortality versus 10% sucrose control,fire ant workers [1]; 1.0% in 10% sucrose,significantly different from the sucrose control
same,speed of worker mortality versus tyramine at the same concentration,"fire ant workers [1]; 1.0%, p<0.001",significantly faster worker mortality than the 1.0% tyramine
same,speed of action compared to the N-methyl tyramine free-base,fire ant workers [1]; in vivo,appears to be quicker acting
"CNCCc1ccc(O)cc1 [N-methyl-tyramine (free base), N-methyl-tyramine]",worker attraction to poison sac extracts compared among active treatments,female sexuals (alates),significantly greater worker attraction than poison sac extracts from tyramine treatments
same,"worker attraction to poison sac extracts versus N,N-dimethyl tyramine treatment and controls",female sexuals (alates),"significantly different from those from the N,N-dimethyl tyramine treatment and the sucrose and hexane controls"
same,% worker mortality at the end of the experiment versus control,[2],significantly different from the corresponding controls
same,fate of colony queens (five replicates),[2],all queen replicates (5) died
same,queen mortality at the end of the experiment versus control,[2],significantly different from the corresponding controls
same,colonies considered dead,[2]; five colonies,100%
same,solubility maximum,[3],1%
same,fire ant worker mortality versus 10% sucrose control,fire ant workers [1]; 0.01% in 10% sucrose,significantly different from the 10% sucrose control
same,fire ant worker mortality versus 10% sucrose control,fire ant workers [1]; 0.1% in 10% sucrose,significantly different from the 10% sucrose control
same,fire ant worker mortality versus 10% sucrose control,fire ant workers [1]; 1.0% in 10% sucrose,significantly different from the 10% sucrose control
same,mortality at the two lower concentrations (0.1 and 0.01%) versus the 1.0% concentration,fire ant workers [1]; in 10% sucrose,significantly higher mortality than the 1.0% concentration
NCCc1ccc(O)c(O)c1 [dopamine],worker mortality (Kaplan-Meier),fire ant workers [4],did not result in significant mortality
CCCCCC(=O)NCCc1ccc(O)cc1 [hexanoyl tyramide],"ovariole development, ovariole area, compared to controls",[5],not hexanoyl tyramide caused significant ovariole development
same,"ovariole development, ovary rank 1-4, compared to the control",[5],significant ovariole development
same,degradation of the tyramide,MFA mid- and hind-gut,No degradation of the tyramide was observed
NCCc1c[nH]cn1 [histamine],worker mortality (Kaplan-Meier),fire ant workers [4],did not result in significant mortality
NCC(O)c1ccc(O)cc1 (stereo not drawn) [octopamine],worker mortality (Kaplan-Meier),fire ant workers [4],did not result in significant mortality
NCCc1c[nH]c2ccc(O)cc12 [serotonin],worker mortality (Kaplan-Meier),fire ant workers [4],did not result in significant mortality
Cl.NCCc1ccc(O)cc1 [tyramine HCl],worker mortality (Kaplan-Meier),fire ant workers [4],statistically greater mortality than the control and the other 4 biogenic amines
same,worker attraction to poison sac extracts compared among active treatments,female sexuals (alates),not different from tyramine or N-methyl tyramine
same,"worker attraction to poison sac extracts versus N,N-dimethyl tyramine treatment and controls",female sexuals (alates),"significantly different from those from the N,N-dimethyl tyramine treatment and the sucrose and hexane controls"
acetyl tyramide,dealation (wing loss) compared to the control,[6],significantly faster and inappropriate dealation
same,"ovariole development, ovariole area, compared to controls",[5],caused significant ovariole development
same,"ovariole development, ovary rank 1-4, compared to the control",[5],significant ovariole development
same,"worker mortality compared with sucrose control (Kaplan-Meier, Log-rank)",fire ant workers [7]; 24 h,significantly greater worker mortality than the sucrose control
same,worker mortality within the 24 h time period,"fire ant workers [7]; droplets, 60 workers",> 40%
same,mortality / sickness of 4th instar sexual larvae,4th instar sexual larvae,none of the acetyl tyramide treatments died or appeared sick
same,degradation of the tyramide,MFA mid- and hind-gut,No degradation of the tyramide was observed
